Where two headings read alike, the source gives them in different places.

16 compounds from patent US4360511A, “Amines useful as brain imaging agents” (Medi-Physics, Inc., priority 1980, dated 1982) can be followed below.

The nature of this data set: Bioassay: distribution of I-123-labeled compounds in organs of rats after tail vein injection (percent dose/gram, brain/blood ratio). In kind it is in vivo, Female Sprague-Dawley rats. The following applies: for Brain/Blood Ratio 5 min. / tissue uptake at 5 min: 5 minutes post-injection; for Brain/Blood Ratio 60 min. / tissue uptake at 1 h: 60 minutes post-injection; for tissue uptake at 5 min / tissue uptake at 1 h: rat, iv, 0.05 to 1.0 mCi, two rats. How it is done: Female Sprague-Dawley rats weighing approximately 150 g were anesthetized with sodium pentobarbital and were injected in a tail vein with from 0.05 to 1.0 mCi (in a volume of 0.2 to 0.5 ml) of the I-123-labeled compound. Two specimens were utilized for each test.
Two animals each were sacrificed at 5 minutes and 60 minutes post-injection, the tails discarded and the amount of activity in various organs determined. Each organ was counted at a standardized geometry with a sodium iodide crystal scintillation counter adjusted for the 159 keV emission of I-123. The organs were also weighed to one thousandth of a gram and the activity calculated as a percent of administered dose per gram of organ weight.
The ratio of brain-to-blood activity was calculated as a percent of administered dose per gram.

The mark [1] stands for this setting: blood, read-out: Percent Dose/Gram Blood 5 min.
[2] abbreviates: blood, read-out: Percent Dose/Gram Blood 60 min.
Setting [3] is: brain, read-out: Percent Dose/Gram Brain 5 min.
Where [4] appears, read: brain, read-out: Percent Dose/Gram Brain 60 min.
Setting [5] is: heart, read-out: Percent Dose/Gram Heart 5 min.
Setting [6] is: heart, read-out: Percent Dose/Gram Heart 60 min.

As for `CC1CCC(C)N1Cc1ccccc1[123I]` (centres unmarked) [I--123-N--o-iodobenzyl-2,5-dimethylpyrrolidine], the “Brain/Blood Ratio 5 min.” value worked out at 3.17 and the “Brain/Blood Ratio 60 min.” value was 1.52. Moreover, the tissue uptake at 5 min under setting [1] came to 0.37 %ID/g. The tissue uptake at 1 h under setting [2] is 0.15 %ID/g. Besides, the tissue uptake at 5 min under setting [3] was 1.16 %ID/g. For the same compound, the tissue uptake at 1 h under setting [4] is 0.22 %ID/g. Under setting [5], the tissue uptake at 5 min was determined as 1.03 %ID/g. The tissue uptake at 1 h under setting [6] came out at 0.46 %ID/g.

As for `[123I]c1ccc(NCc2ccccc2)cc1` [I--123-N--benzyl-p-iodoaniline], the “Brain/Blood Ratio 5 min.” value is on record as 1.57 and the “Brain/Blood Ratio 60 min.” value is 0.51. Further, under setting [1], the tissue uptake at 5 min amounted to 1 %ID/g. Further, under setting [2], the tissue uptake at 1 h came out at 0.86 %ID/g. The tissue uptake at 5 min under setting [3] amounted to 1.57 %ID/g. Further, the tissue uptake at 1 h under setting [4] stood at 0.44 %ID/g. The tissue uptake at 5 min under setting [5] turned out to be 1.28 %ID/g. Also, the tissue uptake at 1 h under setting [6] was 0.59 %ID/g.

Consider `CCCNCCc1ccccc1[123I]` [I--123-N--propyl-o-iodo-β-phenethylamine], for which the “Brain/Blood Ratio 5 min.” value amounted to 4.03 and the “Brain/Blood Ratio 60 min.” value is 2.20. Moreover, under setting [1], the tissue uptake at 5 min turned out to be 0.29 %ID/g. In addition, under setting [2], the tissue uptake at 1 h was 0.2 %ID/g. Moreover, under setting [3], the tissue uptake at 5 min is 1.17 %ID/g. Under setting [4], the tissue uptake at 1 h worked out at 0.44 %ID/g. The tissue uptake at 5 min under setting [5] came out at 1.54 %ID/g. Moreover, under setting [6], the tissue uptake at 1 h came out at 0.23 %ID/g.

Turning to `CCN(Cc1ccccc1I)Cc1ccccc1[123I]` [I--123-N,N--di-o-iodobenzylethylamine], the “Brain/Blood Ratio 5 min.” value was determined as 0.68 and the “Brain/Blood Ratio 60 min.” value stood at 0.88. The tissue uptake at 5 min under setting [1] is 0.52 %ID/g. The tissue uptake at 1 h under setting [2] came out at 0.28 %ID/g. Further, the tissue uptake at 5 min under setting [3] amounted to 0.36 %ID/g. For the same compound, the tissue uptake at 1 h under setting [4] turned out to be 0.25 %ID/g. The tissue uptake at 5 min under setting [5] was determined as 2.11 %ID/g. The tissue uptake at 1 h under setting [6] was 0.5 %ID/g.

Consider `[123I]c1ccccc1NCCc1ccccc1` [I--123-N--β-phenethyl-o-iodoaniline], for which the “Brain/Blood Ratio 5 min.” value was 1.24 and the “Brain/Blood Ratio 60 min.” value was found to be 0.33. The tissue uptake at 5 min under setting [1] was 1.04 %ID/g. Besides, under setting [2], the tissue uptake at 1 h came to 0.48 %ID/g. Besides, the tissue uptake at 5 min under setting [3] was determined as 1.29 %ID/g. In addition, the tissue uptake at 1 h under setting [4] stood at 0.16 %ID/g. In addition, the tissue uptake at 5 min under setting [5] worked out at 1.16 %ID/g. Besides, the tissue uptake at 1 h under setting [6] is 0.33 %ID/g.

Consider `NCCc1ccccc1[123I]` [I--123-o-iodo-β-phenethylamine], for which the “Brain/Blood Ratio 5 min.” value is given as 0.49. In addition, the tissue uptake at 5 min under setting [1] is 1.43 %ID/g. Besides, the tissue uptake at 5 min under setting [3] came to 0.7 %ID/g. For the same compound, under setting [5], the tissue uptake at 5 min was 1.22 %ID/g.

Take `[123I]c1ccccc1CN(CCc1ccccc1)CCc1ccccc1` [I--123-N,N--di-β-phenethyl-o-iodobenzylamine]: the “Brain/Blood Ratio 5 min.” value is 1.03. Besides, the tissue uptake at 5 min under setting [1] was determined as 1.03 %ID/g. For the same compound, the tissue uptake at 5 min under setting [3] was determined as 1.06 %ID/g. Besides, under setting [5], the tissue uptake at 5 min was determined as 3.61 %ID/g.

As to `[123I]c1ccc(NCCc2ccccc2)cc1` [I--123-N--β-phenethyl-p-iodoaniline], the “Brain/Blood Ratio 5 min.” value is listed as 1.06. The tissue uptake at 5 min under setting [1] amounted to 0.88 %ID/g. The tissue uptake at 5 min under setting [3] amounted to 0.93 %ID/g. Under setting [5], the tissue uptake at 5 min came out at 1.38 %ID/g.

On to `C[C@@H](N)Cc1ccc([123I])cc1` [I--123-R--p-iodoamphetamine, I-123-R-p-iodoamphetamine], for which the “Brain/Blood Ratio 5 min.” value was found to be 10.60 and the “Brain/Blood Ratio 60 min.” value was 18.50. Further, the tissue uptake at 5 min under setting [1] is 0.15 %ID/g. For the same compound, the tissue uptake at 1 h under setting [2] worked out at 0.12 %ID/g. The tissue uptake at 5 min under setting [3] amounted to 1.38 %ID/g. The tissue uptake at 1 h under setting [4] is 2.07 %ID/g. The tissue uptake at 5 min under setting [5] was 2.43 %ID/g. Moreover, the tissue uptake at 1 h under setting [6] came out at 1.09 %ID/g.

With `CC(C)NCc1cccc([123I])c1` [I--123-N--isopropyl-m-iodobenzylamine], the “Brain/Blood Ratio 5 min.” value amounted to 7.35 and the “Brain/Blood Ratio 60 min.” value is 4.16. Under setting [1], the tissue uptake at 5 min was determined as 0.22 %ID/g. For the same compound, the tissue uptake at 1 h under setting [2] amounted to 0.21 %ID/g. The tissue uptake at 5 min under setting [3] is 1.61 %ID/g. The tissue uptake at 1 h under setting [4] came to 0.85 %ID/g. The tissue uptake at 5 min under setting [5] worked out at 0.99 %ID/g. The tissue uptake at 1 h under setting [6] was 0.46 %ID/g.

On to `CC(C)N[C@H](C)Cc1ccc([123I])cc1` [I--123-R--N--isopropyl-p-iodoamphetamine, I-123-R-N-isopropyl-p-iodoamphetamine], for which the “Brain/Blood Ratio 5 min.” value was 12.60 and the “Brain/Blood Ratio 60 min.” value came to 20.70. Moreover, under setting [1], the tissue uptake at 5 min was 0.14 %ID/g. Moreover, the tissue uptake at 1 h under setting [2] amounted to 0.11 %ID/g. In addition, the tissue uptake at 5 min under setting [3] came out at 1.57 %ID/g. The tissue uptake at 1 h under setting [4] is 2.14 %ID/g. Under setting [5], the tissue uptake at 5 min is 1.78 %ID/g. The tissue uptake at 1 h under setting [6] came to 0.87 %ID/g.

As to `CC(C)NCc1ccccc1[123I]` [I--123-N--isopropyl-o-iodobenzylamine, I-123-N-isopropyl-o-iodobenzylamine], the “Brain/Blood Ratio 5 min.” value stood at 7.63 and the “Brain/Blood Ratio 60 min.” value was 1.04. In addition, under setting [1], the tissue uptake at 5 min came to 0.16 %ID/g. The tissue uptake at 1 h under setting [2] is 0.62 %ID/g. Also, the tissue uptake at 5 min under setting [3] turned out to be 1.21 %ID/g. Moreover, the tissue uptake at 1 h under setting [4] was 0.64 %ID/g. Under setting [5], the tissue uptake at 5 min amounted to 0.72 %ID/g. Under setting [6], the tissue uptake at 1 h was determined as 0.47 %ID/g.

Take `CC(C)Nc1ccccc1[123I]` [I--123-N--isopropyl-o-iodoaniline]: the “Brain/Blood Ratio 5 min.” value turned out to be 1.13 and the “Brain/Blood Ratio 60 min.” value is reported as 0.26. The tissue uptake at 5 min under setting [1] is 0.78 %ID/g. Also, the tissue uptake at 1 h under setting [2] was determined as 0.5 %ID/g. Besides, under setting [3], the tissue uptake at 5 min worked out at 0.88 %ID/g. Under setting [4], the tissue uptake at 1 h amounted to 0.13 %ID/g. Further, the tissue uptake at 5 min under setting [5] came to 0.75 %ID/g. The tissue uptake at 1 h under setting [6] was 0.29 %ID/g.

With `[123I]c1ccccc1CCNCCc1ccccc1` [I--123-N--β-phenethyl-o-iodo-β-phenethylamine], the “Brain/Blood Ratio 5 min.” value is on record as 4.77 and the “Brain/Blood Ratio 60 min.” value is on record as 5.17. In addition, under setting [1], the tissue uptake at 5 min was 0.16 %ID/g. Besides, under setting [2], the tissue uptake at 1 h worked out at 0.09 %ID/g. The tissue uptake at 5 min under setting [3] stood at 0.74 %ID/g. For the same compound, the tissue uptake at 1 h under setting [4] came to 0.48 %ID/g. Also, the tissue uptake at 5 min under setting [5] is 1.56 %ID/g. In addition, the tissue uptake at 1 h under setting [6] amounted to 0.26 %ID/g.

As for `[123I]c1ccccc1CNCCc1ccccc1` [I--123-N--β-phenethyl-o-iodobenzylamine], the “Brain/Blood Ratio 5 min.” value is 2.52 and the “Brain/Blood Ratio 60 min.” value is on record as 0.96. In addition, the tissue uptake at 5 min under setting [1] is 0.27 %ID/g. Also, the tissue uptake at 1 h under setting [2] is 0.14 %ID/g. Under setting [3], the tissue uptake at 5 min worked out at 0.68 %ID/g. The tissue uptake at 1 h under setting [4] is 0.14 %ID/g. Under setting [5], the tissue uptake at 5 min is 0.56 %ID/g. For the same compound, under setting [6], the tissue uptake at 1 h stood at 0.15 %ID/g.

Take `CC(C)Nc1ccc([123I])cc1` [I--123-N--isopropyl-p-iodoaniline]: the “Brain/Blood Ratio 5 min.” value was found to be 2.55 and the “Brain/Blood Ratio 60 min.” value came to 0.33. For the same compound, the tissue uptake at 5 min under setting [1] is 0.48 %ID/g. In addition, the tissue uptake at 1 h under setting [2] was 0.79 %ID/g. The tissue uptake at 5 min under setting [3] was 1.23 %ID/g. Further, under setting [4], the tissue uptake at 1 h was 0.26 %ID/g. Besides, under setting [5], the tissue uptake at 5 min was found to be 1.01 %ID/g. Further, the tissue uptake at 1 h under setting [6] was determined as 0.61 %ID/g.
